Data from US20200405739A1, “MTOR INHIBITOR, PHARMACEUTICAL COMPOSITION AND USE THEREOF” (SHENYANG FUYANG PHARMACEUTICAL TECHNOLOGY CO., LTD., priority 2018, published 2020).

Key:
[1] = human body; cited from earlier work
[2] = test system: non-small cell lung cancer cells A549; experiment: in vivo tumor growth inhibition
[3] = test system: mouse liver cancer cells H22; experiment: in vivo tumor growth inhibition
[4] = test system: PI3K/Akt/mTOR signaling pathway protein; experiment: Western blot of PI3K/Akt/mTOR pathway proteins in A549 cells (Test Example 2); format: cell-based, human; details: 24 h; for activation of PI3K protein, 4EBP1 protein, mTOR protein / expression of Akt protein and S6K1 protein and of their activated proteins: Western blot
Experimental: A549 cells were purchased from American Type Culture Collection (ATCC, Manassas, Va., USA). The cells were cultured in a DMEM medium containing 10% fetal bovine serum, 2% glutamine and penicillin (100 U/ml) in an incubator at 37° C. with 5% CO2. The cells used in the experiment were all cells in logarithmic phase.
A549 was an adherent cell, cells in logarithmic growth phase was selected as the experimental group.
1) 60-100 μl of lysate was added to each tube of cells, and was subjected to ice bath in a refrigerator at 4° C. for 1 h; the solution was centrifuged for 10-15 min at 12,000 r/min, the supernatant was suck out to a 0.5 ml EP tube; after the quantitative protein was measured with Bio-Rad, 5× loading buffers were added, and the solution was subjected to boiling water bath for 3-5 min and then was cryopreserved at −80° C.
2) 15%, 12% or 10% acrylamide separation gel was prepared according to Tab. 2-1, and was then mixed with various ingredients successively; once TEMED and AP were added, the mixture was quickly rotated and poured between the two glass plates of the electrophoresis tank, leaving the space required for pouring the stacking gel.
The separation gel was covered with a layer of isopropyl alcohol, and the gel was placed vertically at room temperature for about 30 min.
3) After the separation gel was completely polymerized, the isopropyl alcohol was removed, and the gel was washed with deionized water for 10 times; water was absorbed with filter paper, a stacking gel was prepared according to Tab.2-2, and a clean sample comb was immediately inserted after adding the stacking gel into electrophoresis tank.
4) After the stacking gel was completely polymerized, the electrophoresis instrument was filled with 1×electrophoretic buffer solution, samples were added into sample holes according to a predetermined sequence to start electrophoresis, the voltage was 50-60V when the samples were located at the stacking gel, and the voltage was adjusted to 100-140V when the samples swam to the separation gel.
1) After the SDS polyacrylamide gel electrophoresis was completed, the gel was placed in the transfer buffer and soaked for 30 min. 8 pieces of Whatman 3 MM filter paper and 1 piece of nitrocellulose membrane were cut out, which were consistent with the size of the gel. The nitrocellulose membrane was immersed in methanol for 1 min, and the nitrocellulose membrane was immersed in deionized water to remove air bubbles.
2) The gel was stacked into a “sandwich” shape and inserted into the transfer cell. The gel was connected to the cathode on one side, 100 mA for 3 h.
3) The transferred nitrocellulose membrane entered the Ponceau S staining solution for 5-10 min, and was shaken gently during the period. After the protein band appeared, it was rinsed with deionized water several times, and the position of the standard protein molecular weight was marked with waterproof ink.
4) The membrane was placed in a petri dish with a blocking solution and blocked for 2 h.
5) The blocking solution containing a first antibody was added at 0.1 ml/cm^2 and stayed overnight at 4° C. (dilution multiples of various antibodies are as shown in Tab 0.2-2)
6) The first antibody was recovered, the membrane was rinsed with PBST 3 times for 10 min each time, and was then transferred to a solution containing 150 mM NaCl and 50 mM Tris-HCl (pH 7.5) and shaken for 10 min.
7) A phosphate-free and sodium azide-free blocking solution containing a second antibody was added at 0.1 ml/cm2, wherein the second antibody labeled with horseradish peroxidase was diluted 1,000 times.
8) It was rinsed with 150 mM NaCl and 50 mmol/L Tris-HCl (pH 7.5) solution for 3 times for 10 min each time. Color development was carried out in a dark room with an ECL kit, and pictures were scanned and saved. […]

| Compound | absolute oral bioavailability [1] | inhibition of tumor growth in vivo [2] | inhibition of tumor growth in vivo [3] | activation of PI3K protein, 4EBP1 protein, mTOR protein [4] | expression of Akt protein and S6K1 protein and of their activated proteins [4] | inhibitory effects on AKT, S6K1 and 4EBP1 compared with rapamycin ([4]; rapamycin 20 μg/ml as control drug) |
| --- | --- | --- | --- | --- | --- | --- |
| spiramycin | 30-40% |  |  |  |  |  |
| CO[C@@H]1[C@@H](O[C@@H]2O[C@H](C)[C@@H](O[C@H]3C[C@@](C)(O)[C@@H](OC(=O)CC(C)C)[C@H](C)O3)[C@H](N(C)C)[C@H]2O)[C@@H](CC=O)C[C@@H](C)[C@@H](O[C@H]2CC[C@H](N(C)C)[C@@H](C)O2)/C=C/C=C/C[C@@H](C)OC(=O)C[C@H]1O [isovalerylspiramycin I] |  | obvious inhibiting effects | obvious inhibiting effects | inhibit the protein activation of the PI3K/AKT/mTOR signaling pathway | inhibit expression of Akt protein and S6K1 protein and expression of their activated proteins | more excellent inhibitory effects on AKT, S6K1 and 4EBP1 |
| CCC(=O)O[C@@H]1CC(=O)O[C@H](C)C/C=C/C=C/[C@H](O[C@H]2CC[C@H](N(C)C)[C@@H](C)O2)[C@H](C)C[C@H](CC=O)[C@H](O[C@@H]2O[C@H](C)[C@@H](O[C@H]3C[C@@](C)(O)[C@@H](OC(=O)CC(C)C)[C@H](C)O3)[C@H](N(C)C)[C@H]2O)[C@H]1OC [isovalerylspiramycin III] |  |  |  | inhibit the activation of PI3K protein, 4EBP1 protein and mTOR protein | inhibit the expression of AKT protein and S6K1 protein and the expression of their activated proteins |  |
| isovalerylspiramycin II |  |  |  | inhibit the activation of PI3K protein, 4EBP1 protein and mTOR protein | inhibit the expression of AKT protein and S6K1 protein and the expression of their activated proteins |  |
